Source: patent US20260115205A1, “ON DEMAND FEMALE CONTRACEPTIVE” (priority 2021, published 2026)
“And” between values parts separate entries of the source, which are not always exact repeats. Equal values may be shown once. Read-outs that look alike come from different tables or passages of the source.

Assays:
[1] = cited from earlier work
women [2] = conditions: cited from earlier work; for serious adverse effects/events: general statement
[3] = test system: normal menstruating women; assay: Pilot study of MEL 15 mg for 5 days in 3 normal menstruating women; type: in vivo, human
Description: A pilot study was performed using MEL 15 mg for 5 days in 3 normal menstruating women with a control no treatment but monitored cycle and a treatment cycle. Treatment was initiated when the participant was within one day of anticipated LH surge based on the control cycle.

women [4] = conditions: emergency contraception; cited from earlier work
[5] = 1.5 mg single dose, n=1359 women, Plan B One Step label
[6] = 15 mg, 12 week rheumatoid arthritis placebo controlled trial, Mobic label
[7] = oral 15 mg for 5 days in normal women

Compound: C#C[C@]1(O)CC[C@H]2[C@@H]3CCC4=CC(=O)CC[C@@H]4[C@H]3CC[C@@]21CC [Levonorgestrel, levonorgestrel]
- mean peak blood level ([1]; 1.5 mg, immunoassay methodology): 18 ng/mL
- absorption from the gastrointestinal tract ([1]; in vivo): almost completely absorbed
- enzyme principally metabolizing ([1]; in vivo): CYP3A4
- estimated serum half-life ([1]; in vivo): 27.5 h
- mean peak serum level ([1]; two different laboratories, liquid chromatography and tandem mass spectrometry): 18.3 ng/mL and 10.2 ng/mL
- breast tenderness (women [2]; [5]): 8.2%
- delay of menses >7 days (women [2]; [5]): 4.5%
- dizziness (women [2]; [5]): 9.6%
- fatigue (women [2]; [5]): 13.3%
- headache (women [2]; [5]): 10.3%
- heavy menstrual bleeding (women [2]; [5]): 30.9%
- lower abdominal pain (women [2]; [5]): 13.3%
- nausea (women [2]; [5]): 13.7%
- serious adverse effects/events (women [2]; listed as LNG): have not been reported

Compound: Cc1cnc(NC(=O)C2=C(O)c3ccccc3S(=O)(=O)N2C)s1 [Meloxicam, meloxicam]
- effect on the LH surge dynamics [3]: no effect
- time to steady state concentration ([1]; 15 mg daily): three to five
- time of peak serum levels ([1]; depending upon food intake): five or six
- enzyme principally metabolizing ([1]; in vivo): CYP2C9
- incidence of adverse events (women [2]; 15 mg taken daily for 18 days): 33.7%
- serious adverse events (women [2]; 15 mg taken daily for 18 days): no serious adverse events reported
- abdominal pain (women [2]; [6]): 2.6%
- dizziness (women [2]; [6]): 3.8%
- dyspepsia (women [2]; [6]): 4.5%
- edema (women [2]; [6]): 4.5%
- headache (women [2]; [6]): 8.3%
- nausea (women [2]; [6]): 3.8%
- skin rash (women [2]; [6]): 0.6%
- serious adverse effects/events (women [2]): rare
- adverse events (women [2]; [7]): 27.3%
- bloating (women [2]; [7]): 4.5%
- hot flushes (women [2]; [7]): 9.0%
- low abdominal pain (women [2]; [7]): 13.6%

Compound: CC(=O)O[C@]1(C(C)=O)CC[C@H]2[C@@H]3CCC4=CC(=O)CCC4=C3[C@@H](c3ccc(N(C)C)cc3)C[C@@]21C [ulipristal acetate]
- preventing pregnancy as interval from unprotected intercourse to use increases (women [4]): superior to LNG
